Values of other authors in patent publication US11534622B2, “Non-invasive systems and methods for selective activation of photoreactive responses” (IMMUNOLIGHT, LLC, priority 2014, dated 2022).

Assays:
[1] = orange juice, high UV exposure of 100 mJ/cm^2
[2] = clinical use
tumors = details: in vivo

Question: With `O=C1O[C@H]([C@@H](O)CO)C(O)=C1O` [Vitamin C] as the compound, how does the “degradation of Vitamin C” value [1] read?
Answer: Its value is 17%.

Question: For `Oc1cccc(-c2c3nc(c(-c4cccc(O)c4)c4ccc([nH]4)c(-c4cccc(O)c4)c4nc(c(-c5cccc(O)c5)c5ccc2[nH]5)CC4)C=C3)c1` [Foscan, Tetra (m-hydroxyphenyl) chlorin], which “duration of skin photosensitivity” value [2] is on record?
Answer: The value was “approximately 2 weeks”.

Question: With `CC(=O)[O-].CC(=O)[O-].CCc1c(CC)c2cc3nc(cnc4cc(OCCOCCOCCOC)c(OCCOCCOCCOC)cc4ncc4nc(cc1[n-]2)C(CCCO)=C4C)C(C)=C3CCCO.O.[Lu+3]` [Lutetium texaphryin, Motexafin lutetium] as the compound, how does the “selectivity for tumors compared to normal tissues” value (tumors) read?
Answer: Its value is “one of the greatest reported selectivities for tumors”.
